Assay results reported in ChEMBL document CHEMBL3885861, “Open TG-GATES”.

Species: Rattus norvegicus
Test: Open TG-GATES - Regimen: Single
Format: toxicity, organism-based, Sprague-Dawley
Set-up: regimen Single, gender Male, age 6 weeks
Settings: in vivo, iv, 300 mg/kg, route intravenous injection, dose level Low; for APTT / Bas / Eos / Fbg / Hb / Ht / Lym / MCH / MCHC / MCV / Mono / PT / Plat / RBC / Ret / WBC: tissue Blood; for KIDNEY_L / KIDNEY_R / KIDNEY_TOTAL: tissue Kidney; for LIVER: tissue Liver; for ALP / ALT / AST / BUN / CRE / Ca / Cl / DBIL / GLC / IP / K / LDH / Na / PL / RALB / TBIL / TC / TG / TP / gamma-GTP: tissue Plasma

SMILES: CC(=O)OCC1=C(C(=O)O)N2C(=O)[C@@H](NC(=O)Cc3cccs3)[C@H]2SC1 [CEPHALOTHIN]
- TERMINAL_BW (3 h): 215.7 g
- APTT (3 h): 21.9 s
- Bas (3 h): 0%
- Eos (3 h): 0.6%
- Fbg (3 h): 294.6 mg/dL
- Hb (3 h): 13 g/dL
- Ht (3 h): 38.4%
- Lym (3 h): 75.4%
- MCH (3 h): 21.3 pg
- MCHC (3 h): 33.8%
- MCV (3 h): 62.9 fL
- Mono (3 h): 2.6%
- PT (3 h): 16.4 s
- Plat (3 h): 128.8 x10_4/uL
- RBC (3 h): 611.6 x10_4/ul
- Ret (3 h): 6.6%
- WBC (3 h): 98.3 x10_2/uL
- KIDNEY_L (3 h): 0.9 g
- KIDNEY_R (3 h): 1 g
- KIDNEY_TOTAL (3 h): 1.9 g
- LIVER (3 h): 9.8 g
- ALP (3 h): 1407.8 IU/L
- ALT (3 h): 49.8 IU/L
- AST (3 h): 87.8 IU/L
- BUN (3 h): 12.4 mg/dL
- CRE (3 h): 0.2 mg/dL
- Ca (3 h): 10.5 mg/dL
- Cl (3 h): 105.8 meq/L
- DBIL (3 h): 0 mg/dL
- GLC (3 h): 179 mg/dL
- IP (3 h): 7.8 mg/dL
- K (3 h): 4.1 meq/L
- LDH (3 h): 204.4 IU/L
- Na (3 h): 142.4 meq/L
- PL (3 h): 135.2 mg/dL
- RALB (3 h): 2.8 g/dL
- TBIL (3 h): 0.016 mg/dL
- TC (3 h): 69.2 mg/dL
- TG (3 h): 92 mg/dL
- TP (3 h): 5.2 g/dL
- gamma-GTP (3 h): 1.4 IU/L
- TERMINAL_BW (6 h): 208.2 g
- APTT (6 h): 22.7 s
- Bas (6 h): 0%
- Eos (6 h): 0.8%
- Fbg (6 h): 278.6 mg/dL
- Hb (6 h): 13.4 g/dL
- Ht (6 h): 38.9%
- Lym (6 h): 78%
- MCH (6 h): 21.3 pg
- MCHC (6 h): 34.4%
- MCV (6 h): 62 fL
- Mono (6 h): 2.6%
- PT (6 h): 16 s
- Plat (6 h): 118.3 x10_4/uL
- RBC (6 h): 627.2 x10_4/ul
- Ret (6 h): 5.9%
- WBC (6 h): 75.8 x10_2/uL
- KIDNEY_L (6 h): 0.9 g
- KIDNEY_R (6 h): 0.9 g
- KIDNEY_TOTAL (6 h): 1.9 g
- LIVER (6 h): 8.9 g
- ALP (6 h): 1320.4 IU/L
- ALT (6 h): 36.8 IU/L
- AST (6 h): 78.4 IU/L
- BUN (6 h): 9.6 mg/dL
- CRE (6 h): 0.2 mg/dL
- Ca (6 h): 10.3 mg/dL
- Cl (6 h): 105.6 meq/L
- DBIL (6 h): 0 mg/dL
- GLC (6 h): 171.6 mg/dL
- IP (6 h): 9 mg/dL
- K (6 h): 4.1 meq/L
- LDH (6 h): 162.4 IU/L
- Na (6 h): 141.6 meq/L
- PL (6 h): 125.4 mg/dL
- RALB (6 h): 2.9 g/dL
- TBIL (6 h): 0.022 mg/dL
- TC (6 h): 66.4 mg/dL
- TG (6 h): 75.2 mg/dL
- TP (6 h): 5.3 g/dL
- gamma-GTP (6 h): 1 IU/L
- TERMINAL_BW (9 h): 211.4 g
- APTT (9 h): 24.2 s
- Bas (9 h): 0%
- Eos (9 h): 1%
- Fbg (9 h): 284 mg/dL
- Hb (9 h): 13.2 g/dL
- Ht (9 h): 38.6%
- Lym (9 h): 81.2%
- MCH (9 h): 21.3 pg
- MCHC (9 h): 34.1%
- MCV (9 h): 62.3 fL
- Mono (9 h): 2%
- PT (9 h): 16.1 s
- Plat (9 h): 135 x10_4/uL
- RBC (9 h): 619.6 x10_4/ul
- Ret (9 h): 6.4%
- WBC (9 h): 77.3 x10_2/uL
- KIDNEY_L (9 h): 1 g
- KIDNEY_R (9 h): 1 g
- KIDNEY_TOTAL (9 h): 1.9 g
- LIVER (9 h): 8.6 g
- ALP (9 h): 1157.8 IU/L
- ALT (9 h): 34.2 IU/L
- AST (9 h): 69 IU/L
- BUN (9 h): 10 mg/dL
- CRE (9 h): 0.1 mg/dL
- Ca (9 h): 10.4 mg/dL
- Cl (9 h): 106.2 meq/L
- DBIL (9 h): 0 mg/dL
- GLC (9 h): 180.8 mg/dL
- IP (9 h): 9.6 mg/dL
- K (9 h): 4.5 meq/L
- LDH (9 h): 128.6 IU/L
- Na (9 h): 141 meq/L
- PL (9 h): 115.8 mg/dL
- RALB (9 h): 2.8 g/dL
- TBIL (9 h): 0.02 mg/dL
- TC (9 h): 60.6 mg/dL
- TG (9 h): 71.2 mg/dL
- TP (9 h): 5.1 g/dL
- gamma-GTP (9 h): 1.4 IU/L
- TERMINAL_BW (24 h): 226.1 g
- APTT (24 h): 22 s
- Bas (24 h): 0%
- Eos (24 h): 0.8%
- Fbg (24 h): 303.8 mg/dL
- Hb (24 h): 13.2 g/dL
- Ht (24 h): 38.9%
- Lym (24 h): 81%
- MCH (24 h): 20.6 pg
- MCHC (24 h): 34%
- MCV (24 h): 60.4 fL
- Mono (24 h): 2.2%
- PT (24 h): 16.7 s
- Plat (24 h): 120 x10_4/uL
- RBC (24 h): 645.2 x10_4/ul
- Ret (24 h): 6%
- WBC (24 h): 89.2 x10_2/uL
- KIDNEY_L (24 h): 1 g
- KIDNEY_R (24 h): 1 g
- KIDNEY_TOTAL (24 h): 2 g
- LIVER (24 h): 10.2 g
- ALP (24 h): 1605.2 IU/L
- ALT (24 h): 53 IU/L
- AST (24 h): 77.6 IU/L
- BUN (24 h): 17 mg/dL
- CRE (24 h): 0.2 mg/dL
- Ca (24 h): 10.6 mg/dL
- Cl (24 h): 105.8 meq/L
- DBIL (24 h): 0 mg/dL
- GLC (24 h): 184.4 mg/dL
- IP (24 h): 7.2 mg/dL
- K (24 h): 4.3 meq/L
- LDH (24 h): 171.6 IU/L
- Na (24 h): 142.4 meq/L
- PL (24 h): 135.6 mg/dL
- RALB (24 h): 2.9 g/dL
- TBIL (24 h): 0.016 mg/dL
- TC (24 h): 70.6 mg/dL
- TG (24 h): 90 mg/dL
- TP (24 h): 5.4 g/dL
- gamma-GTP (24 h): 2 IU/L
